This test deals with Mycobacterium tuberculosis H37Rv. Kind of test: Mycobacterium tuberculosis H37Rv Inhibition Assay. The conditions noted are these: ATCC 25618 / H37Rv, read-out: MIC value. In kind it is cell-based.
The mark [1] stands for this setting: H37Rv strain (ATCC25618), Middlebrook 7H9+ADC medium, resazurin fluorescence.

Counter-ions that a name gives are not always drawn. Like-named read-outs stand apart in the source and are kept apart here.

With `Cc1cc(=O)n2c3c1ccc(=O)n3[C@H](CN1CCC(NCc3cc4c(cn3)OCCO4)CC1)C2` [Example 3, (1R)-1-({4-[(2,3-dihydro[1,4]dioxino[2,3-c]pyridin-7-ylmethyl)amino]-1-piperidinyl}methyl)-6-methyl-1,2-dihydro-4H,9H-imidazo[1,2,3-ij]-1,8-naphthyridine-4,9-dione hydrochloride], the MIC is above 2.5 µg/mL.

`Cc1cc(=O)n2c3c1ccc(=O)n3[C@H](CN1CCC(NCc3cc4c(cn3)OCCS4)CC1)C2` [Example 2, (1R)-1-({4-[(2,3-dihydro[1,4]oxathiino[2,3-c]pyridin-7-ylmethyl)amino]-1-piperidinyl}methyl)-6-methyl-1,2-dihydro-4H,9H-imidazo[1,2,3-ij]-1,8-naphthyridine-4,9-dione hydrochloride]: the MIC was below 2 µg/mL.

For the compound `Cc1cc(=O)n2c3c1ccc(=O)n3[C@H](CN1CCC(NCc3cc4c(cn3)OCS4)CC1)C2` [Example 4, (1R)-6-methyl-1-({4-[([1,3]oxathiolo[5,4-c]pyridin-6-ylmethyl)amino]-1-piperidinyl}methyl)-1,2-dihydro-4H,9H-imidazo[1,2,3-4]-1,8-naphthyridine-4,9-dione hydrochloride], the minimal inhibitory concentration (MIC) under setting [1] is below 2 µg/mL.

On to `Cc1cc(=O)n2c3c1ccc(=O)n3[C@H](CN1CCC(NCc3cc4c(cn3)OCCC4)CC1)C2` [Example 1, (1R)-1-({4-[(3,4-dihydro-2H-pyrano[2,3-c]pyridin-6-ylmethyl)amino]-1-piperidinyl}methyl)-6-methyl-1,2-dihydro-4H,9H-imidazo[1,2,3-4]-1,8-naphthyridine-4,9-dione hydrochloride], for which the MIC under setting [1] is below 2 µg/mL.

As a reminder, the MIC is the lowest concentration found to suppress growth.

(Values after patent US20110275661A1, “TRICYCLIC NITROGEN COMPOUNDS USED AS ANTIBACTERIALS” (Glaxo Group Limited, priority 2008, published 2011).)
